Laboratory results reported in paper PMC9227096, “Design, Synthesis, and In Vitro, In Silico and In Cellulo Evaluation of New Pyrimidine and Pyridine Amide and Carbamate Derivatives as Multi-Functional Cholinesterase Inhibitors” (Pharmaceuticals, 2022).
Read-outs that look alike come from different tables or passages of the source.

How the values were obtained:
equine BChE (eqBChE) [1] = biological target: T1, equine BChE (eqBChE) (Equus caballus, UniProt P81908); test: Determination of IC50 vs. eqBChE; type: biochemical; settings: IC50 ± SE, 100 µM acetylthiocholine, compound 18 after incubation for 1 h
T1 construct: purchased Sigma-Aldrich (Milan, Italy)
T1 sequence (P81908 whole entry): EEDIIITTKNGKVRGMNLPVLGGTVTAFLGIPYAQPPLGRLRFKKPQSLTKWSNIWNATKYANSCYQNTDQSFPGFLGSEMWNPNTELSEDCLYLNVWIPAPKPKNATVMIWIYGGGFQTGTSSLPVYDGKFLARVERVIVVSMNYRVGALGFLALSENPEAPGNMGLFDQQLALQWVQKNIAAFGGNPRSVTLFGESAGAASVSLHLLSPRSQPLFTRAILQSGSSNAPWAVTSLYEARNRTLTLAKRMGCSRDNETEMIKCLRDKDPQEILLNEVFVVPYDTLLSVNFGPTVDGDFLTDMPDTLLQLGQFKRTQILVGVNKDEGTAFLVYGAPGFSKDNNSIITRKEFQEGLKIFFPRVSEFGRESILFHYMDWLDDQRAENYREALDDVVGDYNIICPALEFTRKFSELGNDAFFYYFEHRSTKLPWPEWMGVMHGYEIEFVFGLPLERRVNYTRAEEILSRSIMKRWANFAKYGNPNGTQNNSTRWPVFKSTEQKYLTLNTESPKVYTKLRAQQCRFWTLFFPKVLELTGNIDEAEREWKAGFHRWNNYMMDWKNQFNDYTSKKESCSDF
Experimental: The recorded data were analyzed with the enzyme kinetic module of SigmaPlot (Systat Software, Palo alto, CA, USA). Each measurement was replicated three times and the IC50 value obtained was confirmed by repeating the experiment twice. […] The IC50 plot of the tested compound is reported in the Supplementary Materials (Figure S3).
The recorded data were analyzed by the enzyme kinetic module of SigmaPlot, plotting the percentages of inhibition as a function of the different concentrations of inhibitor, expressed in logarithmic scale, in order to obtain the sigmoid graph, from which it was possible to determinate the IC50 value of the tested compound. The IC50 value was confirmed by repeating the experiment twice.

equine BChE (eqBChE) [2] = biological target: T1, equine BChE (eqBChE); test: Reversibility of inhibition vs. eqBChE (ultrafiltration and washing); type: biochemical; settings: for inhibition at 5.4 µM: compound 18 5.4 µM, eqBChE 1.25 U
Experimental: Moreover, it was evaluated whether the inhibition mechanism of carbamate 18 towards eqBChE is reversible, irreversible or pseudo-irreversible. For this purpose, the percentages of inhibition were determined both after one hour of the incubation of compound 18 (5.4 µM) with eqBChE (1.25 U), both following the removal of the inhibitor and the washing of the enzyme, carried out through ultrafiltration devices for the concentration of biological samples [35, 36]. To validate the method, the same study was performed with carbaryl (54 µM), a known carbamoylating cholinesterase inhibitor.
After the incubation phase, the solution containing the inhibitor not bound to the enzyme was removed by centrifugation, retaining eqBChE on the membrane of the ultrafiltration devices. Then the enzyme was washed with phosphate buffer, to remove the bound inhibitor and to restore the enzyme activity.
Three solutions were prepared in 0.1 M phosphate buffer (pH = 7.4), containing eqBChE (0.50 UmL^−1), DTNB (0.3 mM) and acetylthiocholine (10 mM), respectively. A solution of compound 18 in DMSO (2.7 mM) was prepared. Then six Vivaspin® were used: • three were prepared with 2.5 mL of eqBChE solution (0.50 UmL^−1) and 5 µL of inhibitor solution; • three were prepared with 2.5 mL of eqBChE solution (0.50 UmL^−1) and 5 µL of DMSO.
The Vivaspin® thus prepared were incubated for 1 h at 25 °C. After this time the percentage of inhibition was determined following the Ellman method. The blank was recorded by taking 500 µL from the Vivaspin® and diluting them in the cuvette in 2.5 mL of DTNB solution (0.3 mM). The reaction was activated by adding 30 μL of acetylthiocholine solution (10 mM), so as to obtain a final concentration of 100 µM in the cuvette. The absorbance variation was measured between 0.5 and 1.5 min at 412 nm, repeating the measurement for each of the six Vivaspin®.
After this procedure the first centrifugation of the Vivaspin® was carried out for 60 min at 4000 rpm and subsequently the solutions that crossed the membrane and settled in the filtrate tube were removed. In this way the solutions present in the concentrator body were concentrated up to 100 µL. To these solutions 1 mL of 0.1 M phosphate buffer (pH = 7.4) was added and the second centrifugation was carried out for 30 min at 4000 rpm. The solutions present in the concentrator body were concentrated up to 200 µL. The second washing was carried out, adding 1 mL of buffer and centrifuging for 30 min at 4000 rpm. The solutions present in the concentrator body were concentrated up to 250 µL. A third wash was carried out adding 1 mL of buffer and centrifuging for 50 min at 4000 rpm. The solutions present in the concentrator body were concentrated up to 150 µL. At this point, to recover the concentrated solution, the filtrate tube was removed, the concentrator body was turned upside down and inserted inside the concentrate recovery cap. The Vivaspin® was centrifuged for 10 min at 4000 rpm. After this time the recovered solution was taken up with 3 mL of DTNB solution (0.3 mM) and transferred into the cuvette: blank was recorded. The reaction was activated when 30 µL of substrate solution (10 mM) were added so as to have a final concentration of 100 µM in the cuvette. The absorbance variation between 0.5 and 1.5 min was measured at 412 nm, repeating the measurement for each of the recovered solutions.
As a positive control carbaryl was used, for which the same procedure was followed, using a 27 mM carbaryl stock solution in DMSO.

## O=C(NCCCCCCNc1ccccn1)Oc1ccccc1 [Compound 18, Phenyl (6-(pyridin-2-ylamino)hexyl)carbamate]
Equine BChE (eqBChE) [1]
  IC50: 454 nM
Equine BChE (eqBChE) [2]; after ultrafiltration and washing with phosphate buffer, read-out: percentage of inhibition of eqBChE after removal of inhibitor and washing of the enzyme
  inhibition at 5.4 µM: 56.7%
Equine BChE (eqBChE) [2]; before washing, read-out: percentage of inhibition of eqBChE after one hour of incubation
  inhibition at 5.4 µM: 89.7%
Equine BChE (eqBChE) [2]; from restoration of enzymatic activity after washing
  inhibition mechanism towards eqBChE (reversible, irreversible or pseudo-irreversible): pseudo-irreversible
